#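 The compound was tested at five concentrations on cells cultured in 96-well plates, with a 48-hour exposure period. TGI denotes the concentration required for complete inhibition of growth.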
# Tests used:
# Assay in all cases: growth of human tumour cells (NCI), 48 h
# 786-0 renal = tested on: 786-0 renal
# A498 renal = tested on: A498 renal
# A549 NSCLC = tested on: A549 NSCLC
# ACHN renal = tested on: ACHN renal
# BT-549 breast = tested on: BT-549 breast
# CAKI-1 renal = tested on: CAKI-1 renal
# CCRF-CEM leukemia = tested on: CCRF-CEM leukemia
# COLO 205 colon = tested on: COLO 205 colon
# DU-145 prostate = tested on: DU-145 prostate
# EKVX NSCLC = tested on: EKVX NSCLC
# HCC-2998 colon = tested on: HCC-2998 colon
# HCT-116 colon = tested on: HCT-116 colon
# HCT-15 colon = tested on: HCT-15 colon
# HL-60(TB) leukemia = tested on: HL-60(TB) leukemia
# HOP-62 NSCLC = tested on: HOP-62 NSCLC
# HOP-92 NSCLC = tested on: HOP-92 NSCLC
# HS 578T breast = tested on: HS 578T breast
# HT29 colon = tested on: HT29 colon
# IGROV1 ovarian = tested on: IGROV1 ovarian
# K-562 leukemia = tested on: K-562 leukemia
# KM12 colon = tested on: KM12 colon
# M14 melanoma = tested on: M14 melanoma
# MALME-3M melanoma = tested on: MALME-3M melanoma
# MCF7 breast = tested on: MCF7 breast
# MDA-MB-231 breast = tested on: MDA-MB-231 breast
# MDA-MB-435 = tested on: MDA-MB-435
# MDA-N = tested on: MDA-N
# MOLT-4 leukemia = tested on: MOLT-4 leukemia
# NCI-H226 lung = tested on: NCI-H226 lung
# NCI-H23 lung = tested on: NCI-H23 lung
# NCI-H460 lung = tested on: NCI-H460 lung
# NCI-H522 lung = tested on: NCI-H522 lung
# NCI/ADR-RES ovarian = tested on: NCI/ADR-RES ovarian
# OVCAR-3 ovarian = tested on: OVCAR-3 ovarian
# OVCAR-4 ovarian = tested on: OVCAR-4 ovarian
# OVCAR-5 ovarian = tested on: OVCAR-5 ovarian
# OVCAR-8 ovarian = tested on: OVCAR-8 ovarian
# PC-3 prostate = tested on: PC-3 prostate
# RPMI-8226 leukemia = tested on: RPMI-8226 leukemia
# RXF 393 renal = tested on: RXF 393 renal
# SF-268 CNS = tested on: SF-268 CNS
# SF-295 CNS = tested on: SF-295 CNS
# SF-539 CNS = tested on: SF-539 CNS
# SK-MEL-2 melanoma = tested on: SK-MEL-2 melanoma
# SK-MEL-28 melanoma = tested on: SK-MEL-28 melanoma
# SK-MEL-5 melanoma = tested on: SK-MEL-5 melanoma
# SK-OV-3 ovarian = tested on: SK-OV-3 ovarian
# SN12C renal = tested on: SN12C renal
# SNB-19 CNS = tested on: SNB-19 CNS
# SNB-75 CNS = tested on: SNB-75 CNS
# SR leukemia = tested on: SR leukemia
# SW-620 colon = tested on: SW-620 colon
# T-47D breast = tested on: T-47D breast
# TK-10 renal = tested on: TK-10 renal
# U251 CNS = tested on: U251 CNS
# UACC-257 melanoma = tested on: UACC-257 melanoma
# UACC-62 melanoma = tested on: UACC-62 melanoma
# UO-31 renal = tested on: UO-31 renal
# LOX IMVI melanoma = tested on: LOX IMVI melanoma
structure (smiles),measurement,setting,value
CC1Oc2cc3c(-c4c(O)cc(O)c5c(O)c6c(cc45)OC(C)C(C)C6=O)c(O)cc(O)c3c(O)c2C(=O)C1C (stereo not drawn),TGI,786-0 renal,1.21 µM
same,TGI,A498 renal,0.784 µM
same,TGI,A549 NSCLC,1.29 µM
same,TGI,ACHN renal,1.57 µM
same,TGI,BT-549 breast,0.775 µM
same,TGI,CAKI-1 renal,2.36 µM
same,TGI,CCRF-CEM leukemia,0.148 µM
same,TGI,COLO 205 colon,0.39 µM
same,TGI,DU-145 prostate,10.7 µM
same,TGI,EKVX NSCLC,0.711 µM
same,TGI,HCC-2998 colon,1.63 µM
same,TGI,HCT-116 colon,0.289 µM
same,TGI,HCT-15 colon,1.15 µM
same,TGI,HL-60(TB) leukemia,0.65 µM
same,TGI,HOP-62 NSCLC,1.23 µM
same,TGI,HOP-92 NSCLC,0.854 µM
same,TGI,HS 578T breast,0.459 µM
same,TGI,HT29 colon,0.397 µM
same,TGI,IGROV1 ovarian,1.3 µM
same,TGI,K-562 leukemia,0.627 µM
same,TGI,KM12 colon,1.51 µM
same,TGI,M14 melanoma,1.12 µM
same,TGI,MALME-3M melanoma,1.13 µM
same,TGI,MCF7 breast,3.75 µM
same,TGI,MDA-MB-231 breast,0.378 µM
same,TGI,MDA-MB-435,1.16 µM
same,TGI,MDA-N,1.58 µM
same,TGI,MOLT-4 leukemia,0.731 µM
same,TGI,NCI-H226 lung,0.89 µM
same,TGI,NCI-H23 lung,0.756 µM
same,TGI,NCI-H460 lung,0.163 µM
same,TGI,NCI-H522 lung,1.63 µM
same,TGI,NCI/ADR-RES ovarian,1.39 µM
same,TGI,OVCAR-3 ovarian,0.816 µM
same,TGI,OVCAR-4 ovarian,4.98 µM
same,TGI,OVCAR-5 ovarian,6.32 µM
same,TGI,OVCAR-8 ovarian,1.4 µM
same,TGI,PC-3 prostate,0.698 µM
same,TGI,RPMI-8226 leukemia,0.469 µM
same,TGI,RXF 393 renal,0.207 µM
same,TGI,SF-268 CNS,2.46 µM
same,TGI,SF-295 CNS,0.49 µM
same,TGI,SF-539 CNS,0.645 µM
same,TGI,SK-MEL-2 melanoma,0.331 µM
same,TGI,SK-MEL-28 melanoma,1.96 µM
same,TGI,SK-MEL-5 melanoma,0.461 µM
same,TGI,SK-OV-3 ovarian,1.56 µM
same,TGI,SN12C renal,1.12 µM
same,TGI,SNB-19 CNS,1.16 µM
same,TGI,SNB-75 CNS,0.557 µM
same,TGI,SR leukemia,0.429 µM
same,TGI,SW-620 colon,1.52 µM
same,TGI,T-47D breast,1.41 µM
same,TGI,TK-10 renal,5.45 µM
same,TGI,U251 CNS,0.404 µM
same,TGI,UACC-257 melanoma,1.68 µM
same,TGI,UACC-62 melanoma,1.34 µM
same,TGI,UO-31 renal,1.54 µM
CC1=NC(=O)C(C)(c2ccccc2)N1CCc1ccccc1 (stereo not drawn),TGI,786-0 renal,> 100 µM
same,TGI,A498 renal,> 100 µM
same,TGI,A549 NSCLC,> 100 µM
same,TGI,ACHN renal,> 100 µM
same,TGI,BT-549 breast,> 100 µM
same,TGI,CAKI-1 renal,> 100 µM
same,TGI,CCRF-CEM leukemia,> 100 µM
same,TGI,COLO 205 colon,> 100 µM
same,TGI,DU-145 prostate,> 100 µM
same,TGI,EKVX NSCLC,> 100 µM
same,TGI,HCC-2998 colon,> 100 µM
same,TGI,HCT-116 colon,> 100 µM
same,TGI,HCT-15 colon,> 100 µM
same,TGI,HL-60(TB) leukemia,> 100 µM
same,TGI,HOP-62 NSCLC,> 100 µM
same,TGI,HOP-92 NSCLC,> 100 µM
same,TGI,HS 578T breast,> 100 µM
same,TGI,HT29 colon,> 100 µM
same,TGI,IGROV1 ovarian,> 100 µM
same,TGI,K-562 leukemia,> 100 µM
same,TGI,KM12 colon,> 100 µM
same,TGI,LOX IMVI melanoma,> 100 µM
same,TGI,M14 melanoma,> 100 µM
same,TGI,MALME-3M melanoma,> 100 µM
same,TGI,MCF7 breast,> 100 µM
same,TGI,MDA-MB-231 breast,> 100 µM
same,TGI,MDA-MB-435,> 100 µM
same,TGI,MDA-N,> 100 µM
same,TGI,MOLT-4 leukemia,94.7 µM
same,TGI,NCI-H226 lung,> 100 µM
same,TGI,NCI-H23 lung,> 100 µM
same,TGI,NCI-H522 lung,> 100 µM
same,TGI,NCI/ADR-RES ovarian,> 100 µM
same,TGI,OVCAR-3 ovarian,> 100 µM
same,TGI,OVCAR-4 ovarian,> 100 µM
same,TGI,OVCAR-5 ovarian,> 100 µM
same,TGI,OVCAR-8 ovarian,> 100 µM
same,TGI,PC-3 prostate,> 100 µM
same,TGI,RPMI-8226 leukemia,> 100 µM
same,TGI,RXF 393 renal,> 100 µM
same,TGI,SF-268 CNS,> 100 µM
same,TGI,SF-295 CNS,> 100 µM
same,TGI,SF-539 CNS,> 100 µM
same,TGI,SK-MEL-2 melanoma,> 100 µM
same,TGI,SK-MEL-5 melanoma,> 100 µM
same,TGI,SK-OV-3 ovarian,> 100 µM
same,TGI,SN12C renal,> 100 µM
same,TGI,SNB-19 CNS,> 100 µM
same,TGI,SNB-75 CNS,> 100 µM
same,TGI,SR leukemia,> 100 µM
same,TGI,SW-620 colon,> 100 µM
same,TGI,T-47D breast,> 100 µM
same,TGI,TK-10 renal,> 100 µM
same,TGI,U251 CNS,> 100 µM
same,TGI,UACC-257 melanoma,> 100 µM
same,TGI,UACC-62 melanoma,> 100 µM
same,TGI,UO-31 renal,> 100 µM
Clc1cccc(Cl)c1C=NC12CC3CC(CC(C3)C1)C2,TGI,786-0 renal,> 10 µM
same,TGI,A498 renal,> 10 µM
same,TGI,A549 NSCLC,> 10 µM
same,TGI,ACHN renal,> 10 µM
same,TGI,BT-549 breast,> 10 µM
same,TGI,CAKI-1 renal,> 10 µM
same,TGI,CCRF-CEM leukemia,> 10 µM
same,TGI,COLO 205 colon,> 10 µM
same,TGI,DU-145 prostate,> 10 µM
same,TGI,EKVX NSCLC,> 10 µM
same,TGI,HCC-2998 colon,> 10 µM
same,TGI,HCT-116 colon,> 10 µM
same,TGI,HCT-15 colon,> 10 µM
same,TGI,HL-60(TB) leukemia,> 10 µM
same,TGI,HOP-62 NSCLC,> 10 µM
same,TGI,HOP-92 NSCLC,> 10 µM
same,TGI,HS 578T breast,> 10 µM
same,TGI,HT29 colon,> 10 µM
same,TGI,IGROV1 ovarian,> 10 µM
same,TGI,K-562 leukemia,> 10 µM
same,TGI,KM12 colon,> 10 µM
same,TGI,LOX IMVI melanoma,> 10 µM
same,TGI,M14 melanoma,> 10 µM
same,TGI,MALME-3M melanoma,> 10 µM
same,TGI,MCF7 breast,> 10 µM
same,TGI,MDA-MB-231 breast,> 10 µM
same,TGI,MDA-MB-435,> 10 µM
same,TGI,MDA-N,> 10 µM
same,TGI,MOLT-4 leukemia,> 10 µM
same,TGI,NCI-H226 lung,> 10 µM
same,TGI,NCI-H23 lung,> 10 µM
same,TGI,NCI-H460 lung,> 10 µM
same,TGI,NCI-H522 lung,> 10 µM
same,TGI,NCI/ADR-RES ovarian,> 10 µM
same,TGI,OVCAR-3 ovarian,> 10 µM
same,TGI,OVCAR-4 ovarian,> 10 µM
same,TGI,OVCAR-5 ovarian,> 10 µM
same,TGI,OVCAR-8 ovarian,> 10 µM
same,TGI,PC-3 prostate,> 10 µM
same,TGI,RPMI-8226 leukemia,> 10 µM
same,TGI,RXF 393 renal,> 10 µM
same,TGI,SF-268 CNS,> 10 µM
same,TGI,SF-295 CNS,> 10 µM
same,TGI,SF-539 CNS,> 10 µM
same,TGI,SK-MEL-2 melanoma,> 10 µM
same,TGI,SK-MEL-28 melanoma,> 10 µM
same,TGI,SK-MEL-5 melanoma,> 10 µM
same,TGI,SK-OV-3 ovarian,> 10 µM
same,TGI,SN12C renal,> 10 µM
same,TGI,SNB-19 CNS,> 10 µM
same,TGI,SNB-75 CNS,> 10 µM
same,TGI,SR leukemia,> 10 µM
same,TGI,SW-620 colon,> 10 µM
same,TGI,T-47D breast,> 10 µM
same,TGI,TK-10 renal,> 10 µM
same,TGI,U251 CNS,> 10 µM
same,TGI,UACC-257 melanoma,> 10 µM
same,TGI,UACC-62 melanoma,> 10 µM

# Reference: PubChem BioAssay (NCI)
